The text below walks through data of patent US20230002736A1, “ENDODERM DIFFERENTIATION FROM PLURIPOTENT STEM CELL LINES” (priority 2019, published 2023).

This experiment relates to Cleaved Caspase 3 (CC3). Nature of the experiment: Cleaved caspase 3 immunofluorescence during endoderm induction. The conditions noted are these: 48 hours of induction, 4 different cell-line experiments. In kind it is cell-based, human. On the procedure: Immunohistochemistry and Cell staining. iPSCs, endodermal cells and iHeps were fixed using 4% paraformaldehyde for 15 minutes, permeabilized using 0.1% Triton X-100 for 10 minutes followed by 3× PBS (phosphate buffered saline, Corning Life Sciences) rinses and blocking with 1.5% bovine serum albumin for 1 hour. Samples were incubated with primary antibody overnight. […]
As a first step to understand the mechanism by which doxycycline was affecting induction of iPSCs into endoderm, we explored whether doxycycline was affecting proliferation versus cellular death. […] After quantification, we noted both significant Ki-67 staining and cleaved caspase 3 (CC3) staining, as expected (FIG. 3A). […]

Consider `C[C@H]1c2cccc(O)c2C(=O)C2=C(O)[C@]3(O)C(=O)C(C(N)=O)=C(O)[C@@H](N(C)C)[C@@H]3[C@@H](O)[C@@H]21` [doxycycline], for which the “decrease in CC3 staining” value was “greater than 50%”.
